Reference: patent publication EP1614683B1, “Indazole compounds and pharmaceutical compositions for inhibiting protein kinases, and methods for their use” (priority 1999, dated 2001)
Like-named read-outs stand apart in the source and are kept apart here.

Legend:
human FGF-R1 = human FGF-R1 (Homo sapiens, UniProt P11362, C488A/C584S/L457V); test: FGF-R spectrophotometric assay; format: biochemical; settings: Table 1; for inhibition at 1 µM: compound concentration 1 µM, read-out: FGF-P* (% inhibition)
Procedure: The spectrophotometric assay was carried out as described above for VEGF-R2, except for the following changes in concentration: FGF-R = 50 nM, ATP = 2 mM, and poly(E4Y1) =15 mM.

LCK tyrosine kinase = LCK tyrosine kinase (Homo sapiens, UniProt P06239, C224D/P223M); test: LCK spectrophotometric assay; format: biochemical; settings: read-out: Lck-P* (% inhibition)
Procedure: The spectrophotometric assay was carried out as described above for VEGF-R2, except for the following changes in concentration: LCK = 60 nM, MgCl2 = 0 mM, poly(E4Y1) = 20 mM.

human CHK1 (FL-CHK1) = target: T1, human CHK1 (FL-CHK1) (Homo sapiens, UniProt O14757); test: CHK1 coupled spectrophotometric assay; format: biochemical; settings: Table 1; read-out: CHK -1* (Ki)
T1 construct: C-terminally His-tagged full-length human CHK1 (FL-CHK1) was expressed using the baculovirus/insect cell system; made in house; host or cells: baculovirus/insect cell system
T1 sequence (O14757 1-476): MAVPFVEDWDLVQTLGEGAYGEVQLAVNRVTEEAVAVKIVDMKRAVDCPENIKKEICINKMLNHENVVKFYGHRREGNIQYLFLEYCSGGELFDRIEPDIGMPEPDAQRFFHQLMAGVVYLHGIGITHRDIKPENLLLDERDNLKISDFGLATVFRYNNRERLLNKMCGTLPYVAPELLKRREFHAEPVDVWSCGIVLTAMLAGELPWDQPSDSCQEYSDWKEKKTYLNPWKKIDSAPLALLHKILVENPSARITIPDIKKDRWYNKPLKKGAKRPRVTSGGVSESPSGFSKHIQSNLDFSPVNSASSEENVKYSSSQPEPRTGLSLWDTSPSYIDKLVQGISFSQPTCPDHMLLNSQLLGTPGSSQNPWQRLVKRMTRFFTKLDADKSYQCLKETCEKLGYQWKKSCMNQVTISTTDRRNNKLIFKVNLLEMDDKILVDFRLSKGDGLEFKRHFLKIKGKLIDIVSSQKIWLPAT
Description: CHK1 Construct for Assay: C-terminally His-tagged full-length human CHK1 (FL-CHK1) was expressed using the baculovirus/insect cell system. […] The protein was purified by conventional chromatographic techniques.
The production of ADP from ATP that accompanies phosphoryl transfer to the synthetic substrate peptide Syntide-2 ([…]) was coupled to oxidation of NADH using phosphoenolpyruvate (PEP) through the actions of pyruvate kinase (PK) and lactic dehydrogenase (LDH). The oxidation of NADH was monitored by following the decrease of absorbance at 340 nm (∈340 = 6.22 cm^-1 mM^-1) using a HP8452 spectrophotometer. […] Assays were initiated with 10 nM of FL-CHK1. Ki values were determined by measuring initial enzyme activity in the presence of varying concentrations of test compounds. The data were analyzed using Enzyme Kinetic and Kaleidagraph software.

[1] = target: T2, phosphorylated Tie-2 (aa 775-1122) (Homo sapiens, UniProt Q02763); test: TIE-2 spectrophotometric assay; format: biochemical; settings: for inhibition at 1 µM: Table 5, bold values spectrophotometric assay, non-bolded DELFIA assay (bold not visible here), read-out: % Inhibition @ 1 µM Tie2-P
T2 construct: 4 to 12 nM phosphorylated Tie-2 (aa 775-1122); made in house; host or cells: insect cells
Outline: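 Human phosphorylated Tie-2 kinase activity was measured spectrophotometrically by coupling ADP formation, from phosphoryl transfer to poly(Glu4 Tyr), to NADH oxidation via pyruvate kinase and lactate dehydrogenase. Absorbance loss at 340 nm was read on a Beckman DU650. Reactions held 1 mM phosphoenolpyruvate, 0.24 mM NADH, 40 mM MgCl2, 5 mM DTT, 0.5 mM ATP, and 15 units/mL each of PK and LDH in 100 mM HEPES, pH 7.5.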

[2] = system: human umbilical vein endothelial cells (HUVEC); test: HUVEC proliferation assay (VEGF-stimulated, MTT); format: cell-based; settings: Homo sapiens, HUVEC
[3] = system: lung cancer cells (line MV522); test: Cancer cell proliferation (MV522) assay; format: cell-based
Procedure: The protocol for assessing cellular proliferation in cancer cells is similar to that used for assessments in HUVEC cells. Two thousand lung cancer cells (line MV522, acquired from American Tissue Cultural Collection) were seeded in growth media (RPMI1640 medium supplemented with 2 mM glutamine and 10% FBS). Cells are allowed to attach for 1 day prior to addition of test agents and /or vehicles. Cells are treated simultaneously with the same test agents used in the HUVEC assay. Cellular proliferation is quantified by MTT dye reduction assay 72 hours after exposure to test agents. The total length of the assay is 4 days vs. 5 for HUVEC cells because MV522 cells are not exposed to starvation medium.

[4] = system: VEGF dependent retinal neovascularization; test: Neonatal rat model of retinopathy of prematurity; format: in vivo; settings: Model ROP, intravitreal
Procedure: A second model of VEGF dependent retinal neovascularization was employed to evaluate the activities of this series of compounds. […] The animals are exposed for 24 hours to a concentration of 50% oxygen followed by 24 hours at a concentration of 10% oxygen. This alternating cycle of hyperoxia followed by hypoxia is repeated 7 times after which the animals are removed to room air (P14). Compounds are administered via intravitreal injection upon removal to room air and the animals are sacrificed 6 days later (P20). The isolated retinas are then isolated, stained mounted and analyzed as detail above in the development model. The effectiveness was also graded as is described for the development model.

in vitro = in vitro ADME, human; settings: human liver microsomes, 5 µM test compound, 37 °C, 2 h; for remaining at 2 h, 5 µM: read-out: % remain (HLM, 2 h)
Outline: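 HLM diluted to 5 mg/mL in 100 mM KPO4, preincubated 10 min at 37 °C with NADPH-regenerating system. Compound (5 µM final) incubated at 37 °C in triplicate, sampled at 0 and 2 h into ice-cold acetonitrile, then LC-MS analysis.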

CDK4/Cyclin D3 complex = CDK4/Cyclin D3 complex (Homo sapiens, UniProt P11802); test: biochemical; settings: read-out: CDK4 * (% inhibition)
[5] = system: VEGF dependent retinal vascular development; test: In vivo assay of retinal vascular development in neonatal rats; design: species or system rat
Outline: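 Neonatal rats given compound by intravitreal injection, vehicle usually 50% PEG 400/50% 300 mM sucrose, with vehicle in contralateral eye. Retinas removed six days later, ADPase-stained and flat-mounted; stained vessel area quantified by imaging and expressed as percent regression versus vehicle eye.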

[6] = PO, 25 mg/kg, vehicle PEG400:H2O pH 2.3 30:70
in vivo = settings: mouse, plasma, po, 25 mg/kg, pH 2.3
[7] = Table 1, compound concentration 1 µM
[8] = Table 1, + albumin, read-out: HUVEC + albumin IC50
[9] = MV522, Table 1, read-out: MV522 IC50
[10] = 5 mg/ml, vehicle PEG/water 70:30
[11] = 10 mg/ml, vehicle PEG/water 70:30

human FGF-R1, sequence (P11362 456-766 L457V/C488A/C584S): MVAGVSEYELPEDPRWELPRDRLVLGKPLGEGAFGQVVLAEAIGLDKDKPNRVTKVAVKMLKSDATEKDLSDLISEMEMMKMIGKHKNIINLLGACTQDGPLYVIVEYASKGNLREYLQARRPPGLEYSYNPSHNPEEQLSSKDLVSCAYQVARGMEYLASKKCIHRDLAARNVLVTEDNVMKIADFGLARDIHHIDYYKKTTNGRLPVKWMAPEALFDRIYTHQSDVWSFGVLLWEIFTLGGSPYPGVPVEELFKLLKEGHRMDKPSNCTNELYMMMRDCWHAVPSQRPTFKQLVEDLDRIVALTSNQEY
LCK tyrosine kinase, sequence (P06239 223-509 P223M/C224D): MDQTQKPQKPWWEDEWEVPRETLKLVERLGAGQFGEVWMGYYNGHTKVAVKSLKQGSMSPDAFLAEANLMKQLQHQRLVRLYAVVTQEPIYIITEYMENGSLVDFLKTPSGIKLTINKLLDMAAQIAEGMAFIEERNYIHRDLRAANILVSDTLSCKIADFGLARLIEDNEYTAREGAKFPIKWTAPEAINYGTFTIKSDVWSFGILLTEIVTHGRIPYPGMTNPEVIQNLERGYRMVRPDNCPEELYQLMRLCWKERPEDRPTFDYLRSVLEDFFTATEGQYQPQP
T2 sequence (Q02763 775-1122): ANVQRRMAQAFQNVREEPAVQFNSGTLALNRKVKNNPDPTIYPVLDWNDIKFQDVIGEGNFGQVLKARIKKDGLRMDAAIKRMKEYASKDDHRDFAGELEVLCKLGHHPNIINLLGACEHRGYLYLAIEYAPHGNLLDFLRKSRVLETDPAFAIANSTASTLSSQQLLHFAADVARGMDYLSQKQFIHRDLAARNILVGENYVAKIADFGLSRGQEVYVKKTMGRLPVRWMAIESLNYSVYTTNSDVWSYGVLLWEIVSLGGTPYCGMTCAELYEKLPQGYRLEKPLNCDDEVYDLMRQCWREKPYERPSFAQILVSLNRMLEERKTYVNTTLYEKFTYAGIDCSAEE
CDK4/Cyclin D3 complex, sequence (P11802 whole entry): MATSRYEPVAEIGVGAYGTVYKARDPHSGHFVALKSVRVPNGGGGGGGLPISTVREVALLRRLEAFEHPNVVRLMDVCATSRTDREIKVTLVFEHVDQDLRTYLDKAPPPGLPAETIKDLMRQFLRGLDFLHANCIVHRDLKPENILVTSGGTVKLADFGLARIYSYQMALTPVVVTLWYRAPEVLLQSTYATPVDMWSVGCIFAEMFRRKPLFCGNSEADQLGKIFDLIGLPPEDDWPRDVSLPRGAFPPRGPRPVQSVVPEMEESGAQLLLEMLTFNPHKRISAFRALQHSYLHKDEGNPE
CDK4/Cyclin D3 complex, sequence (P30281 whole entry partner): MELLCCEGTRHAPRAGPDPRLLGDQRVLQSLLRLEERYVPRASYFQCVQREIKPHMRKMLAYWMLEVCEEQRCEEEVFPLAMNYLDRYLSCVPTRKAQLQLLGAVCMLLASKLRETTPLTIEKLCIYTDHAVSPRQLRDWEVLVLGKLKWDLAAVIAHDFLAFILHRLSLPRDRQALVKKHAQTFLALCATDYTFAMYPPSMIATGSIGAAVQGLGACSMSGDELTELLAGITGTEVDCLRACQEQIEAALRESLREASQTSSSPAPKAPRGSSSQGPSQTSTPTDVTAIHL

Row | Structure (SMILES) | inhibition at 1 µM (LCK tyrosine kinase; [7]) [%] | IC50 [2, 8] [nM] | IC50 ([2]; Table 1, read-out: HUVEC IC50) [nM] | IC50 [3, 9] [µM] | inhibition at 1 µM (human FGF-R1) [%] | inhibition at 1 µM [1] [%] | % remain (HLM, 2 h) (in vitro) [%] | other results
1 | COc1cc(-c2ccc3c(-c4cc5ccccc5[nH]4)n[nH]c3c2)ccc1O [2(d), 3-(1H-Indol-2-yl)-6-(3-methoxy-4-hydroxy-phenyl)-1H-indazole] | – | – | – | – | – | – | – | Ki (human FGF-R1; read-out: FGF-P* (Ki)): 68 nM; inhibition at 1 µM (LCK tyrosine kinase): 43%; Ki (human CHK1 (FL-CHK1)): 91 nM; inhibition at 10 µM ([1]; read-out: % Inhibition Tie2-P, compound tested at 10 µM): 90%; IC50 ([2]; read-out: HUVEC IC50 (nM)): 450 nM; IC50 ([3]; MV522, read-out: MV522 IC50 (µM)): 0.18 µM
2 | Cc1cccc(C(=O)Nc2cccc(Oc3ccc4c(/C=C/c5ccccc5)n[nH]c4c3)c2)c1 [5(b), 3-Methyl-N-[3-(3-styryl-1h-indazol-6-yloxy)-phenyl]-benzamide] | 78 | 33 | 3.7 | 8.5 | – | – | – | % Inhibition [4, 10]: 45%; Initial Evaluation [4, 10]: ++ (two pluses being judged to be approximately 25-75 % regression)
3 | O=C(Nc1cccc(Oc2ccc3c(/C=C/c4ccc(Cl)cc4)n[nH]c3c2)c1)c1ccccc1 [6(a), N-(3-[3-[2-(4-Chloro-phenyl)-vinyl]-1H-indazol-6-yloxy}-phenyl)-benzamide] | 33 | 50 | 8.5 | 3.5 | 67 | – | – | remaining at 2 h, 5 µM (in vitro): 69%; Initial Evaluation ([4]; 5 mg/ml, vehicle PEG/water): ++ (two pluses being judged to be approximately 25-75 % regression)
4 | Cc1cccc(C(=O)Nc2cccc(Oc3ccc4c(-c5cc6ccccc6[nH]5)n[nH]c4c3)c2)c1 [6(b), N-{3-[3-(2-Indolyl)-1H-indazol-6-yloxy]-phenyl}-3-methyl benzamide] | 81 | 60 | 8 | 4 | 95 | – | – | Initial Evaluation [4, 11]: ++ (two pluses being judged to be approximately 25-75 % regression)
5 | CN(c1cccc(NC(=O)c2ccccc2)c1)c1ccc2c(/C=C/c3ccc4c(c3)OCO4)n[nH]c2c1 [16(a), N-(3-{[3-(2-Benzo[1,3]dioxol-5-yl-vinyl)-1H-indazol-6-yl]-methyl-amino}-phenyl)-benzamide] | 28 | 112 | – | 8 | 65 | 10 | – | remaining at 2 h, 5 µM (in vitro): 7%
6 | C=C(c1cccc(NC(C)=O)c1)c1ccc2c(/C=C/c3ccccc3)n[nH]c2c1 [Example 23, 6-(1-(3-Acetamido-phenyl)-vinyl)-3-styryl-1H-indazole] | 12 | 106 | 9.5 | 5.7 | 14 | 5 | – | inhibition at 1 µM (CDK4/Cyclin D3 complex): 17%
7 | O=C(Nc1cccc(Oc2ccc3c(/C=C/c4cccs4)n[nH]c3c2)c1)c1ccccc1 [Reference Example 30(a), 6-[3-benzamidophenoxy]-3-E-[2-(thien-2-yl)thenyl]-1H-indazole] | 45 | 22 | 1.6 | 5.7 | 94 | 19 | 64 | % Inhibition [4, 11]: 48%; Initial Evaluation [4, 11]: ++ (two pluses being judged to be approximately 25-75 % regression)
8 | Cn1ccnc1C(=O)Nc1cccc(Oc2ccc3c(/C=C/c4ccccn4)n[nH]c3c2)c1 [Reference Example 31(e), 6-[3-((1-Methylimidazol-2-yl)carboxamido)phenoxy]-3-E-[2-(pyridin-2-yl)ethenyl]-1H-indazole] | 43 | 6.2 | – | 8.6 | 62 | – | 49 | % Inhibition ([5]; Model P8, intravitreal, 5 mg/ml, vehicle PEG/water 50:50): 24%; T1/2 [6]: 13.1 h; AUC (in vivo): > 30300 ng·h/mL
9 | O=C(Nc1cccc(C(=O)c2ccc3c(-c4nc5ccccc5[nH]4)n[nH]c3c2)c1)c1ccccc1 [Reference Example 42(b), 6-(3-Benzamidobenzoyl)-3-(1H-benzoimidazol-2-yl)-1H-indazole] | 75 | 29 | 2.1 | 2.1 | 27 | – | 81 | % Inhibition ([5]; Model P9, intravitreal, 10 mg/ml, vehicle PEG/water 70:30): 40%
